Active and inactive are the calls of the source. The rule behind the calls is not given here.
Columns and labels:
Pseudomonas aeruginosa = experiment: Antibacterial activity against Pseudomonas aeruginosa ATCC 27853 by spread plate method; type: functional
Geotrichum candidum = experiment: Antifungal activity against Galactomyces geotrichum IFO 6454 by spread plate method; type: functional
Staphylococcus aureus [1] = experiment: Bactericidal activity against methicillin-susceptible Staphylococcus aureus IFO 12732 assessed as log10 reduction in viable cell count at 0.28 uM by agar dilution test; type: functional, organism-based
Escherichia coli [2] = experiment: Antibacterial activity against Escherichia coli IFO 3806 by spread plate method; type: functional
Bacillus spizizenii = experiment: Bacteriostatic activity against Bacillus subtilis subsp. spizizenii ATCC 6633 by spread plate method; type: functional
Escherichia coli [3] = experiment: Bactericidal activity against Escherichia coli IFO 3806 assessed as log10 reduction in viable cell count at 2.8 uM up to 120 min by agar dilution test; type: functional
Escherichia coli [4] = experiment: Antibacterial activity against Escherichia coli NIHJ by spread plate method; type: functional
Debaryomyces hansenii = experiment: Antifungal activity against Candida famata IFO 0380 by spread plate method; type: functional
Staphylococcus aureus [5] = experiment: Bacteriostatic activity against methicillin-resistant Staphylococcus aureus by spread plate method; type: functional
Klebsiella aerogenes = experiment: Antibacterial activity against Enterobacter aerogenes by spread plate method; type: functional
Staphylococcus aureus [6] = experiment: Bactericidal activity against methicillin-susceptible Staphylococcus aureus IFO 12732 assessed as log10 reduction in viable cell count at 2.8 uM up to 30 min by agar dilution test; type: functional, organism-based
Staphylococcus aureus [7] = experiment: Bacteriostatic activity against methicillin-susceptible Staphylococcus aureus IFO 12732 by spread plate method; type: functional
Trichoderma harzianum = experiment: Antifungal activity against Trichoderma harzianum by spread plate method; type: functional
Rhizopus stolonifer = experiment: Antifungal activity against Rhizopus stolonifer ATCC 6227 by spread plate method; type: functional
Staphylococcus aureus [8] = experiment: Bacteriostatic activity against methicillin-susceptible Staphylococcus aureus 209P by spread plate method; type: functional
Penicillium citrinum = experiment: Antifungal activity against Penicillium citrinum ATCC 9849 by spread plate method; type: functional
Escherichia coli [9] = experiment: Bactericidal activity against Escherichia coli IFO 3806 assessed as log10 reduction in viable cell count at 0.28 to 280 uM up to 30 min by agar dilution test; type: functional, organism-based
Staphylococcus aureus [10] = experiment: Bactericidal activity against methicillin-susceptible Staphylococcus aureus IFO 12732 assessed as log10 reduction in viable cell count at 28 uM up to 60 min by agar dilution test; type: functional, organism-based
Escherichia coli [11] = experiment: Bactericidal activity against Escherichia coli IFO 3806 assessed as log10 reduction in viable cell count at 28 to 280 uM after 30 to 120 min by agar dilution test; type: functional, organism-based
Staphylococcus aureus [12] = experiment: Bactericidal activity against methicillin-susceptible Staphylococcus aureus IFO 12732 assessed as log10 reduction in viable cell count at 0.28 to 280 uM up to 30 min by agar dilution test; type: functional, organism-based
Escherichia coli [13] = experiment: Bactericidal activity against Escherichia coli IFO 3806 assessed as log10 reduction in viable cell count at 2.8 to 280 uM after 30 to 120 min by agar dilution test; type: functional, organism-based
Staphylococcus aureus [14] = experiment: Bactericidal activity against methicillin-susceptible Staphylococcus aureus IFO 12732 assessed as log10 reduction in viable cell count at 280 uM up to 30 min by agar dilution test; type: functional, organism-based
Staphylococcus aureus [15] = experiment: Bactericidal activity against methicillin-susceptible Staphylococcus aureus IFO 12732 assessed as log10 reduction in viable cell count at 2.8 uM up to 120 min by agar dilution test; type: functional
Staphylococcus aureus [16] = experiment: Bactericidal activity against methicillin-susceptible Staphylococcus aureus IFO 12732 assessed as log10 reduction in viable cell count at 2.8 to 280 uM after 30 to 120 min by agar dilution test; type: functional, organism-based
Staphylococcus aureus [17] = experiment: Bactericidal activity against methicillin-susceptible Staphylococcus aureus IFO 12732 assessed as log10 reduction in viable cell count at 28 uM up to 120 min by agar dilution test; type: functional
Staphylococcus aureus [18] = experiment: Bactericidal activity against methicillin-susceptible Staphylococcus aureus IFO 12732 assessed as log10 reduction in viable cell count at 280 uM after 30 to 120 min by agar dilution test; type: functional, organism-based
Escherichia coli [19] = experiment: Bactericidal activity against Escherichia coli IFO 3806 assessed as log10 reduction in viable cell count at 280 uM after 30 to 120 min by agar dilution test; type: functional, organism-based

Compound | MIC (Pseudomonas aeruginosa) | MIC (Geotrichum candidum) | MIC (Escherichia coli [2]) | MIC (Bacillus spizizenii) | MIC (Escherichia coli [4]) | MIC (Debaryomyces hansenii) | MIC (Staphylococcus aureus [5]) | MIC (Klebsiella aerogenes) | MIC (Staphylococcus aureus [7]) | MIC (Trichoderma harzianum) | MIC (Rhizopus stolonifer) | MIC (Staphylococcus aureus [8]) | MIC (Penicillium citrinum) | other results
CCCCCCCCCCCCCCCCCC[P+](C)(C)C.[Cl-] [OCTADECYLTRIMETHYLPHOSPHONIUM CHLORIDE] | > 200 µg/mL | > 200 µg/mL | > 200 µg/mL | 3.13 µg/mL | > 200 µg/mL | 12.5 µg/mL | 1.56 µg/mL | > 200 µg/mL | 0.78 µg/mL | > 200 µg/mL | > 200 µg/mL | 0.78 µg/mL | > 200 µg/mL | Activity (Staphylococcus aureus [1]): inactive; Activity (Escherichia coli [3]): >99.9%; Activity (Staphylococcus aureus [6]): Active; Activity (Escherichia coli [9]): Active
CCCCCCCCCCCCCC[P+](C)(C)C.[Cl-] [TETRADECYLTRIMETHYLPHOSPHONIUM CHLORIDE] | 200 µg/mL | 50 µg/mL | 12.5 µg/mL | 0.2 µg/mL | 12.5 µg/mL | 200 µg/mL | 1.56 µg/mL | 100 µg/mL | 0.2 µg/mL | 200 µg/mL | 200 µg/mL | 0.2 µg/mL | 200 µg/mL | Activity (Staphylococcus aureus [10]): Active; Activity (Escherichia coli [11]): Active; Activity (Staphylococcus aureus [12]): Active; Activity (Escherichia coli [9]): Active
CCCC[P+](CCCC)(CCCC)Cc1ccc(CC)cc1.[Cl-] [TRIBUTYL(4-ETHYLBENZYL)PHOSPHONIUM CHLORIDE] | > 200 µg/mL | > 200 µg/mL | > 200 µg/mL | 100 µg/mL | > 200 µg/mL | > 200 µg/mL | 50 µg/mL | > 200 µg/mL | 50 µg/mL | > 200 µg/mL | > 200 µg/mL | 50 µg/mL | > 200 µg/mL | 
CCCCCCCCCCCCCCCCCC[N+](C)(C)C |  |  |  |  |  |  |  |  |  |  |  |  |  | Activity (Staphylococcus aureus [10]): Active
CCCCCCCCCCCCCC[P+](C)(C)CCCCCCCCCCCCCC.[Cl-] [DITETRADECYLDIMETHYLPHOSPHONIUM CHLORIDE] | > 200 µg/mL | > 200 µg/mL | > 200 µg/mL | 100 µg/mL | > 200 µg/mL | > 200 µg/mL | 200 µg/mL | > 200 µg/mL | 12.5 µg/mL | > 200 µg/mL | > 200 µg/mL | 12.5 µg/mL | > 200 µg/mL | Activity (Staphylococcus aureus [10]): Active; Activity (Escherichia coli [13]): Active; Activity (Staphylococcus aureus [14]): Active; Activity (Staphylococcus aureus [15]): >99.999%
CCCCCCCCCC[P+](C)(C)CCCCCCCCCC.[Cl-] [DIDECYLDIMETHYLPHOSPHONIUM CHLORIDE] | 200 µg/mL | 3.13 µg/mL | 3.13 µg/mL | 0.78 µg/mL | 3.13 µg/mL | 1.56 µg/mL | 0.78 µg/mL | 3.13 µg/mL | 0.78 µg/mL | 200 µg/mL | > 200 µg/mL | 0.78 µg/mL | 100 µg/mL | Activity (Staphylococcus aureus [16]): Active; Activity (Escherichia coli [13]): Active
CCCCCCCCCCCCCC[N+](C)(C)C.[Cl-] |  |  |  |  |  |  |  |  |  |  |  |  |  | Activity (Escherichia coli [11]): Active; Activity (Staphylococcus aureus [17]): >99.9%; Activity (Staphylococcus aureus [14]): Active
CCCCCCCCCCCCCC[P+](C)(C)Cc1ccc(CC)cc1.[Cl-] [(4-ETHYLBENZYL)DIMETHYL(TETRADECYL)PHOSPHONIUM CHLORIDE] | 200 µg/mL | 6.25 µg/mL | 200 µg/mL | 1.56 µg/mL | 200 µg/mL | 6.25 µg/mL | 1.56 µg/mL | 200 µg/mL | 1.56 µg/mL | > 200 µg/mL | > 200 µg/mL | 1.56 µg/mL | > 200 µg/mL | 
CCCCCCCCCCCCCCCCCC[P+](C)(C)CCCCCCCCCCCCCCCCCC.[Cl-] [DIOCTADECYLDIMETHYLPHOSPHONIUM CHLORIDE] | > 200 µg/mL | > 200 µg/mL | > 200 µg/mL | > 200 µg/mL | > 200 µg/mL | > 200 µg/mL | > 200 µg/mL | > 200 µg/mL | 100 µg/mL | > 200 µg/mL | > 200 µg/mL | 100 µg/mL | > 200 µg/mL | Activity (Escherichia coli [13]): Active; Activity (Staphylococcus aureus [17]): >99.99%
CCCCCCCCCC[P+](C)(C)Cc1ccc(CC)cc1.[Cl-] [DECYL(4-ETHYLBENZYL)DIMETHYLPHOSPHONIUM CHLORIDE] | 200 µg/mL | 6.25 µg/mL | 12.5 µg/mL | 1.56 µg/mL | 12.5 µg/mL | 12.5 µg/mL | 1.56 µg/mL | 25 µg/mL | 0.78 µg/mL | > 200 µg/mL | > 200 µg/mL | 0.78 µg/mL | 200 µg/mL | 
CCCCCCCCCC[P+](C)(C)C.[Cl-] [DECYLTRIMETHYLPHOSPHONIUM CHLORIDE] | > 200 µg/mL | > 200 µg/mL | 200 µg/mL | 50 µg/mL | 200 µg/mL | > 200 µg/mL | 50 µg/mL | > 200 µg/mL | 3.13 µg/mL | > 200 µg/mL | > 200 µg/mL | 3.13 µg/mL | > 200 µg/mL | Activity (Staphylococcus aureus [18]): inactive; Activity (Escherichia coli [19]): inactive
CCCCCCCCCCCCCCCCCC[P+](C)(C)Cc1ccc(CC)cc1.[Cl-] [(4-ETHYLBENZYL)DIMETHYL(OCTADECYL)PHOSPHONIUM CHLORIDE] | > 200 µg/mL | > 200 µg/mL | > 200 µg/mL | 25 µg/mL | > 200 µg/mL | > 200 µg/mL | 25 µg/mL | > 200 µg/mL | 12.5 µg/mL | > 200 µg/mL | > 200 µg/mL | 12.5 µg/mL | > 200 µg/mL | 
CCCCCCCCCC[N+](C)(C)CCCCCCCCCC |  |  |  |  |  |  |  |  |  |  |  |  |  | Activity (Escherichia coli [3]): inactive

From ChEMBL document CHEMBL3044951, “Synthesis and antimicrobial activity of dimethyl- and trimethyl-substituted phosphonium salts with alkyl chains of various lengths” (1994)
